These results are taken from ChEMBL document CHEMBL1129008, “Novel 1, 2, 4-oxadiazoles as potent and selective histamine H3 receptor antagonists” (Bioorg Med Chem Lett, 1996).

Assay [1] addresses Histamine H3 receptor (Cavia porcellus) (UniProt Q9JI35). As to the kind of experiment: Antagonistic activity at H3 receptor was assessed on guinea-pig longitudinal muscle strips subjected to electrical field stimulation. It counts as functional.
The next assay addresses Histamine H3 receptor (Rattus norvegicus, UniProt Q9QYN8). Nature of the assay: Binding affinity against H3 receptor in rat cerebral cortex membranes was evaluated using [3H]N-methyl-histamine as radioligand. The format is cell membranes, Membrane.
Assay [2] deals with Histamine H1 receptor (Cavia porcellus) (UniProt P31389). Nature of the assay: Antagonistic activity against H1 receptor was determined in histamine induced contractions of guinea pig isolated whole ileum. The format is functional, tissue-based.
The target of assay [3] is Histamine H2 receptor (Cavia porcellus) (UniProt P47747). Nature of the assay: Antagonistic activity at H2 receptor was assessed against histamine-induced tachycardia in guinea pig isolated atria. It counts as functional.
The subject of assay [4] is Rattus norvegicus. Nature of the assay: Compound was tested in vivo for (R)-alpha- methyl-histamine induced dipsogenicity in rats, upon peroral administration. It counts as functional. To be noted: po.
Assay [5] relates to Rattus norvegicus. As to the kind of experiment: Compound was tested in vivo for (R)-alpha- methyl-histamine induced dipsogenicity in rats, upon subcutaneous administration. It counts as functional. To be noted: sc.
Assay [6] relates to Rattus norvegicus. Nature of the assay: Antagonism of ex vivo binding to rat cortex/hippocampus was determined using [3H]-N-alpha-Methylhistamine, after peroral administration. It counts as functional. Particulars: po.
For assay [7], the system named is Rattus norvegicus. Nature of the assay: Antagonism of ex vivo binding to rat cortex/hippocampus was determined using [3H]-N-alpha-Methylhistamine, after subcutaneous administration. The format is functional. To be noted: sc.

Sequence of Histamine H1 receptor (Cavia porcellus) (P31389 whole entry): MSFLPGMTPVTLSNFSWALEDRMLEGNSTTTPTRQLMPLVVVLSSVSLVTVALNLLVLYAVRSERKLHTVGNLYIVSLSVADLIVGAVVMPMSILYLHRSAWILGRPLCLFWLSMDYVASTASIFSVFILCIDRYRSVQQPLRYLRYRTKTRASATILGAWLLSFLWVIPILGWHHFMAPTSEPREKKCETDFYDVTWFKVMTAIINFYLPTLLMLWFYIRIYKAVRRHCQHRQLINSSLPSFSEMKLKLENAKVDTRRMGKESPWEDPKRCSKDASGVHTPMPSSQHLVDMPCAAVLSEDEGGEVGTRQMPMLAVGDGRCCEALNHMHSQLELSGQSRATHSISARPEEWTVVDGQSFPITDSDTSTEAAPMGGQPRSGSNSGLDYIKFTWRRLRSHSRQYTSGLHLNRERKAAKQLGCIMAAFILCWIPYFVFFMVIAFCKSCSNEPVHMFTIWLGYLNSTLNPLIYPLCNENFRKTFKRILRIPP
Sequence of Histamine H3 receptor (Q9QYN8 whole entry): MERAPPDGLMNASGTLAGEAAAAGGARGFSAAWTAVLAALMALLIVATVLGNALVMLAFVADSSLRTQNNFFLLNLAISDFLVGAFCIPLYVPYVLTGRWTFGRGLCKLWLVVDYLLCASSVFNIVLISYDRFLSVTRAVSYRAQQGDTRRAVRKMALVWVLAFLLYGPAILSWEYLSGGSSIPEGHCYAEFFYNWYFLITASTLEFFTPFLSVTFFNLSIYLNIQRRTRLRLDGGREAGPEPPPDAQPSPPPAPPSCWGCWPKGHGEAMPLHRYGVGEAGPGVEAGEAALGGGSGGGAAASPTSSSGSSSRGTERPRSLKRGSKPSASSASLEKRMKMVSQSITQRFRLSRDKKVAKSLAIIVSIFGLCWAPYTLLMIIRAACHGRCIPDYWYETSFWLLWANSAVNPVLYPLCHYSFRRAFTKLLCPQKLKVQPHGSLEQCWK
Sequence of Histamine H2 receptor (Cavia porcellus) (P47747 whole entry): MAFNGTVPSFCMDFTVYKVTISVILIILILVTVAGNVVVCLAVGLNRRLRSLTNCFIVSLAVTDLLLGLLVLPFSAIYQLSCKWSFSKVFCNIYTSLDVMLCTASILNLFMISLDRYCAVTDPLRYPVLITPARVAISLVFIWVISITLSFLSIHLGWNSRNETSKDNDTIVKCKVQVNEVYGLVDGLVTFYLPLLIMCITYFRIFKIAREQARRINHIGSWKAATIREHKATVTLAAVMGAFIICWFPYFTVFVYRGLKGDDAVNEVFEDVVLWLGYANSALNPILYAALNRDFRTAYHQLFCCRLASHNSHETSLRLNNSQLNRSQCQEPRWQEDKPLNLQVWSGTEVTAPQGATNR
Sequence of Histamine H3 receptor (Cavia porcellus) (Q9JI35 whole entry): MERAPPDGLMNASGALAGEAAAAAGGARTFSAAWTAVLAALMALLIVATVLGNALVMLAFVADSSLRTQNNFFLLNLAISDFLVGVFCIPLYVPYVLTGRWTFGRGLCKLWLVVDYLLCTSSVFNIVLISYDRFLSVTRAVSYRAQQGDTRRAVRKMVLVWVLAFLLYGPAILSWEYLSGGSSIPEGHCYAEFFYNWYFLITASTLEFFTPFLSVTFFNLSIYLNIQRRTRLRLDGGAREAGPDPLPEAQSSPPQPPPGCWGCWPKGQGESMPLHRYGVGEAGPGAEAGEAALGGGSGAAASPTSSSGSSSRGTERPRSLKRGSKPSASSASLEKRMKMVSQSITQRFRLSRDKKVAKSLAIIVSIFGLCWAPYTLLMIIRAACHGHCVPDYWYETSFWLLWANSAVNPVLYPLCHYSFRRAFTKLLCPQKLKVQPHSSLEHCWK

What is called pKB is the KB on a negative log10 scale, so that one unit is a factor of ten. Higher therefore signals a small KB. A word on the Ki: it is a dissociation constant, usually derived from enzyme kinetics or from competition with a known ligand. Consider `Clc1ccc(Cc2noc(CCc3c[nH]cn3)n2)cc1Cl`, for which the pKB in assay [1] stood at 8. At Histamine H3 receptor, this compound showed a Ki of 0.00316 µM.
For `CS(=O)(=O)Nc1ccc(Cc2noc(CCc3c[nH]cn3)n2)cc1`, the Ki on Histamine H3 receptor is 1.26 µM.
For `Clc1ccc(Cc2noc(Cc3c[nH]cn3)n2)cc1`, the pKB in assay [1] was 7.2. This compound had a Ki on Histamine H3 receptor of 0.0251 µM.
The corresponding values for `Fc1ccc(Cc2noc(CCc3c[nH]cn3)n2)cc1` are 8.4 and 0.01 µM.
As to `Clc1ccc(Cc2csc(CCc3c[nH]cn3)n2)cc1`, the pKB in assay [1] was 7.3. The affinity on Histamine H3 receptor corresponds to a Ki of 0.2 µM.
`Clc1ccc(CCc2noc(CCc3c[nH]cn3)n2)cc1`: the figures for the pKB in assay [1], in assay [2] and in assay [3] were 7.7, less than 5 and less than 5, respectively. On Histamine H3 receptor, this compound had a Ki of 0.02 µM.
As usually defined, the ED50 is the dose at which the effect has come halfway, by size or by number of responders. Low readings indicate greater potency, high ones weaker potency. On to `N=C(NCc1ccc(Cl)cc1)SCCCc1c[nH]cn1` [CLOBENPROPIT], for which the pKB is 9.9 in assay [1], less than 6 in assay [2] and less than 6 in assay [3]. The ED50 in the assay with Rattus norvegicus [4] was 2.4 mg/kg; with Rattus norvegicus [5], 1.3 mg/kg; in the assay with Rattus norvegicus [6], more than 30 mg/kg; in the assay on Rattus norvegicus [7] it was 10.5 mg/kg.
`Clc1ccc(CCc2noc(Cc3c[nH]cn3)n2)cc1` had a Ki at Histamine H3 receptor of 0.251 µM.
As to `C[S+]([O-])c1ccc(Cc2noc(CCc3c[nH]cn3)n2)cc1` (stereo not given), at Histamine H3 receptor, the Ki is 2.51 µM.
Take `Clc1ccc(Cc2noc(CCc3c[nH]cn3)n2)cc1` [GR-175737]: the ED50 with Rattus norvegicus [5] stood at 1 mg/kg; in the assay on Rattus norvegicus [6], 1.2 mg/kg; with Rattus norvegicus [7], 1.4 mg/kg.
With `Clc1ccc(Cc2n[nH]c(CCCc3c[nH]cn3)n2)cc1`, the values for the pKB in assay [1], in assay [2] and in assay [3] were 7.4, less than 5 and less than 5, respectively. The compound also showed a Ki on Histamine H3 receptor of 0.0126 µM.
In turn, `c1ccc(-c2ccc(Cc3noc(CCc4c[nH]cn4)n3)cc2)cc1` yielded a pKB in assay [1] of 6.6. The Ki on Histamine H3 receptor was 0.0631 µM.
For `COc1ccc(Cc2noc(CCc3c[nH]cn3)n2)cc1`, the pKB in assay [1] came to 6.5. At Histamine H3 receptor, affinity was put at a Ki of 0.0398 µM.
The corresponding values for `Cn1nc(CCc2c[nH]cn2)nc1Cc1ccc(Cl)cc1` are 5.8 and 0.126 µM.
`Clc1ccc(Cc2n[nH]c(CCc3c[nH]cn3)n2)cc1` had a pKB in assay [1] of 5.7. Further, at Histamine H3 receptor, the Ki was 0.2 µM.
On to `FC(F)(F)c1ccc(Cc2noc(CCc3c[nH]cn3)n2)cc1`, for which the pKB in assay [1] turned out to be 8.3. The Ki at Histamine H3 receptor was 0.00794 µM.
As to `CS(=O)(=O)c1ccc(Cc2noc(CCc3c[nH]cn3)n2)cc1`, the Ki on Histamine H3 receptor is 0.316 µM. In other words, the sub-micromolar range.
Turning to `Clc1ccc(Cc2nc(CCc3c[nH]cn3)no2)cc1`, the pKB amounted to 7 in assay [1] and 5.6 in assay [3]. At Histamine H3 receptor, the Ki is 0.02 µM.
As for `Clc1ccc(Cc2nnc(CCc3c[nH]cn3)s2)cc1`, the pKB worked out at 7 in assay [1] and 5.8 in assay [3]. Affinity at Histamine H3 receptor was put at a Ki of 0.1 µM.
With `CSc1ccc(Cc2noc(CCc3c[nH]cn3)n2)cc1`, the Ki on Histamine H3 receptor was 0.0251 µM.
As to `Clc1ccc(Cc2noc(CCCc3cnc[nH]3)n2)cc1`, the Ki on Histamine H3 receptor was 0.0251 µM.
In the case of `Clc1ccc(Cc2noc(CCCc3c[nH]cn3)n2)cc1`, the pKB in assay [1] was 6.8; in assay [2], less than 5; in assay [3], less than 5.
In turn, `Ic1ccc(Cc2noc(CCc3c[nH]cn3)n2)cc1` displayed a pKB in assay [1] of 7.1. In addition, the affinity at Histamine H3 receptor, expressed as Ki, was 0.00631 µM.
With `S=C(NC1CCCCC1)N1CCC(c2cnc[nH]2)CC1` [THIOPERAMIDE], the pKB in assay [1] is 8.3; in assay [2] it was less than 5; in assay [3], less than 5. For the same compound, the ED50 with Rattus norvegicus [4] turned out to be 0.8 mg/kg; with Rattus norvegicus [5], 0.8 mg/kg; in the assay on Rattus norvegicus [6], 6 mg/kg; with Rattus norvegicus [7], 5.1 mg/kg.
